This passage reports IC50 results from BindingDB's records for patent US11957687 (Regeneron Pharmaceuticals, 2024).

For this experiment, the target named is T1, 17-beta-hydroxysteroid dehydrogenase 13 (Homo sapiens, UniProt Q7Z5P4).
T1 sequence (Q7Z5P4 whole entry): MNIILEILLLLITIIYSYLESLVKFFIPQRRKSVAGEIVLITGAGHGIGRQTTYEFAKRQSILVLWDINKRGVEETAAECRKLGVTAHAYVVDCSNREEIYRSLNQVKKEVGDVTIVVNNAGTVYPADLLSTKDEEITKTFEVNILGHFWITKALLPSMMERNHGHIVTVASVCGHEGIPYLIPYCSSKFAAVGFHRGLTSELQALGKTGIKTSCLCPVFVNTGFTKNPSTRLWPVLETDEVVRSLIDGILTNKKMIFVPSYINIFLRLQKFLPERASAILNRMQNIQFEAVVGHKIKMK
Kind of experiment: HSD17B13 Enzymatic Blocking Assay (50nM). As to the method:
Compounds of the disclosure were screened for their ability to block HSD17B13 function using an enzymatic blocking assay. HSD17B13 activity was quantified using a NADH Glo luminescence assay (Promega, #Cat. No. G9062) to measure the formation of NADH from the oxidation of LTB4, a known HSD17B13 substrate. Compounds were over a 10-point dose curve using an Echo-555 liquid handling dispenser. HSD17B13 (SEQ ID NO: 1, expressed in E. coli) was added at […] a final concentration of 50 nM, depending on the assay run, in a buffer containing 0.2M Tris-HCl pH 7.5 containing 0.01% Triton-X into a low volume white 384-well assay plate. Compounds were incubated with the enzyme for 30 minutes at room temperature. The assay reaction was then initiated by addition of 10 μM LTB4 substrate (Cayman chemicals, Cat. No. 20110) and 500 μM NAD, and the reaction mixture was incubated for 1 or 2 hours at room temperature depending on the assay run. DMSO at a concentration of 0.5% was used as a negative control, and a ‘no substrate’ control was used as a positive control (100% inhibition) in the assay. […] Generation of NADH was detected in the luminescence mode on the Envision Perkin Elmer plate reader. The IC50 values were determined using Dotmatics analysis software.

Each structure is given as a SMILES string. pIC50: −log10 of the molar value.

What is called pIC50 is −log10 of the IC50, conventionally taken in molar units. With `CCCC1Cc2ccc(C)cc2C1NC(=O)c1ccc(C(F)(F)F)[nH]c1=O` (configuration not stated) [US11957687, Compound 291], the pIC50 is 7.10. `CC(C)(C)OC(=O)NCCc1cccc2c1CCCC2NC(=O)c1ccc(C(F)(F)F)[nH]c1=O` (configuration not stated) [US11957687, Compound 301] gave a pIC50 of 5.46.
